Results: US9617230B2, “Creatine prodrugs, compositions and methods of use thereof” (Farmington Pharma Development, priority 2014, dated 2017)

Legend:
[1] = Stability in human plasma incubations; assay type: in vitro ADME
Description: (§1) To determine prodrug stability in mouse, rat, human or plasma from other species, prodrugs (10 μM) or positive controls (10 μM, propantheline or procaine) are incubated in undiluted plasma. Duplicate samples of prodrugs and controls are prepared and analyzed. Stock solutions of prodrugs are prepared in DMSO (10 mM) and diluted to 0.1 mM in pH 7.4 phosphate buffer to prepare spiking solutions. The prodrug spiking solutions are aliquoted (10 μL) into 96-well plates. Pre-warmed (37° C.) plasma (90 μL) is added to the wells designated for 5, 15, 30, 45 and 60 min time points; for t=0 min the quench solution (400 μL acetonitrile) is added directly to the prodrug containing well followed by 90 μL of pre-warmed plasma. At 5, 15, 30, 45 and 60 min 400 μL aliquots of acetonitrile are added to the wells to stop the reaction. After quenching, the plates are shaken for 10 min (600 rpm) and then centrifuged at 5500 g for 15 min. Aliquots (50 μL) are transferred to the analysis plate and diluted with 100 μL ultrapure water (Millipore) for LC-MSMS quantitation of prodrug concentrations, and in some cases creatine and/or creatinine. Chromatography columns (e.g., Atlantis HILIC Silica, Gemini C-18, Ultimate XB-C18) are selected based upon the lipophilicity and polarity of each prodrug. LC-MSMS platforms (e.g., Sciex API4000, Sciex API6500) are also selected based on the requirements of each prodrug. The stabilities of the compounds of the present disclosure (prodrugs) in mouse plasma incubations is shown in Table 4 and stability in human plasma incubations is shown in Table 5.

[2] = Metabolic stability in mouse liver microsomal incubations; assay type: in vitro ADME
Description: (§2) Incubations are conducted at 37° C. in the presence or absence of NADPH regenerating system to indicate whether metabolism proceeds via an NADPH requiring enzyme (i.e. P450s, FMOs, NADPH-P450 reductase or other oxidase enzymes). Duplicate samples of prodrugs and controls are prepared and analyzed. Stock solutions of prodrugs are prepared in DMSO (10 mM) and diluted to 0.05 mM in a mixture of 25% MeOH/pH 7.4 phosphate buffer to prepare spiking solutions. The prodrug spiking solutions are aliquoted (10 μL) into 96-well plates. Pre-warmed (37° C.) microsome solution (80 μL) is added to the wells designated for 5, 15, 30, 45 and 60 min time points and incubated for 10 min before initiating the reaction with 10 μL of NADPH regenerating solution. For t=0 min the quench solution (300 μL acetonitrile) is added directly to the prodrug containing well followed by the microsome solution and NADPH solution. Incubations of the prodrugs in heat-inactivated fractions or buffer are conducted to differentiate enzymatic from non-enzymatic degradation. At specified time points (e.g., 0, 5, 10, 20, 30 and 60 min), samples are taken and terminated with an equal volume of cold acetonitrile containing a suitable internal standard (e.g., labetalol, tolbutamide). After quenching, the plates are centrifuged at 4000 g for 20 min. Aliquots (100 μL) are transferred to the analysis plate and diluted with 400 μL ultrapure water (Millipore) for LC-MSMS quantitation of prodrug concentrations, and in some cases creatine and/or creatinine. Chromatography columns (e.g., ACE 5 Phenyl, Phenomenex C18 Synergi Hydro-RP, Atlantis HILIC Silica) are selected based upon the lipophilicity and polarity of each prodrug. LC-MSMS platforms (e.g., Sciex API4000, Sciex API6500) are also selected based on the requirements of each prodrug. The metabolic stability of the compounds of the present disclosure of in mouse liver microsomal incubations is shown in Table 6 and human liver microsomal incubations is shown in Table 7.

[3] = Stability of prodrugs in simulated gastric fluid (SGF) with and without pepsin; assay type: in vitro ADME; details: prodrug 10 μM, 37° C.
Description: For determination of stability in simulated gastric fluid (SGF), prodrug (10 μM) is incubated in SGF (0.2% NaCl w/v, 0.7% HCl v/v, pH1.2) with and without addition of pepsin (3.2 g of purified pepsin per liter with an activity of 800-2500 units per mg of protein) at 37° C. At selected time points (e.g., 0, 15, 30, 60 and 120 min) 50 μL aliquots are removed and neutralized by addition of 50 μL of 0.1M sodium bicarbonate solution, followed by 150 μL of ice-cold acetonitrile. Samples are centrifuged at 4,000×g for 15 min at 4° C., and the supernatants are removed and analyzed for prodrug, creatine and creatinine concentrations by LC-MSMS (Table 2).

[4] = Stability in mouse plasma incubations; assay type: in vitro ADME
Description: as §1

[5] = Metabolic stability in human liver microsomal incubations; assay type: in vitro ADME; details: human liver microsomes
Description: as §2

[6] = Stability of prodrugs in simulated intestinal fluid (SIF) with and without pancreatin; assay type: in vitro ADME; details: prodrug 10 μM, 37° C.
Description: For determination of stability in simulated intestinal fluid (SIF), prodrug (10 μM) is incubated in SIF (0.68% KH2PO4 w/v, 0.86% NaOH v/v, pH 6.8) with and without addition of pancreatin (1% w/v) at 37° C. At selected time points (e.g., 0, 15, 30, 60 and 120 min) 50 μL aliquots are removed and the reactions are terminated by addition of 150 μL of ice-cold acetonitrile. Samples are centrifuged at 4,000×g for 15 min at 4° C., and the supernatants are removed and analyzed for prodrug, creatine and creatinine concentrations by LC-MSMS (Table 3).

[7] = In vitro release of d3-creatine and d3-creatinine from d3-prodrugs in mouse liver homogenate (MLH) incubations; assay type: in vitro ADME
Description: For assessment of the ability of prodrugs to release creatine, and to release creatine preferentially to unwanted cyclization to creatinine, d3-labeled (deuterium labeled methyl group) prodrugs are incubated with liver homogenates (e.g., mouse, human) specially prepared to preserve N-reductase activity. The use of d3-labelled prodrugs is essential in order to distinguish prodrug-derived creatine (d3-creatine) from high concentrations of endogenous (non-labeled) creatine. Incubations (37° C.) are performed in 100 mM potassium phosphate buffer, pH 6.0 to optimize N-reductase activity. Prodrugs are tested at final concentrations of 20 μM and 200 μM. Approximately 4-5 mg of homogenate is used for each reaction. Co-factor (NADH) is included at a final concentration of 1 mM. Benzamidoxime (500 μM final concentration) is used as a positive control for N-reductase activity. N-reductase activity is confirmed by conversion of benzamidoxime into benzamidine. Negative controls include incubations without NADH (to assess NADH-independent prodrug cleavage) and incubations without liver homogenate (but with NAPD) to assess non-enzymatic prodrug cleavage under the conditions of the assay. […] Sample supernatants are analyzed by LC-MSMS (HILIC column) for determination of d3-prodrug, d3-creatine and d3-creatinine levels (Table 8).

[8] = athletes and body builders, 2-3 gm/day; cited from earlier work
[9] = animals fed a diet containing up to 1% cyclocreatine; cited from earlier work

[2H]C([2H])([2H])N(CC(=O)OCCCCCCC)c1nc(=O)o[nH]1 [Compound E, heptyl 2-[(5-oxo-2H-1,2,4-oxadiazol-3-yl)-(trideuteriomethyl)amino]acetate]
half-life at 10 μM [1]: 2.57 h | % Remaining 5 min ([1]; 5 min, 10 μM): 101% | % Remaining 60 min ([1]; 1 h, 10 μM): 75.6% | melting point: 110 to 115 °C | % Remaining (No NADPH) 30 min ([2]; mouse liver microsomes, no NADPH, 30 min, 10 μM): 15.6% | % Remaining (w/NADPH) 5 min ([2]; mouse liver microsomes, with NADPH, 5 min, 10 μM): 89.1% | % Remaining (w/NADPH) 30 min ([2]; mouse liver microsomes, with NADPH, 30 min, 10 μM): 26.0% | half-life at 10 μM ([2]; pH 7.4, mouse liver microsomes): 0.333 h | CLint scaled at 10 μM ([2]; pH 7.4, mouse liver microsomes, read-out: in vivo Clint): 407 mL/min/kg | half-life at 10 μM ([3]; simulated gastric fluid (SGF) with pepsin, SGF pH 1.2 with pepsin, read-out: T1/2 (min) (+) pepsin): > 360 min | half-life at 10 μM ([3]; simulated gastric fluid (SGF) without pepsin, SGF pH 1.2 without pepsin, read-out: T1/2 (min) (−) pepsin): > 360 min | half-life at 10 μM [4]: > 3 h | % Remaining 5 min ([4]; 10 μM, 5 min): 100% | % Remaining 60 min ([4]; 10 μM, 60 min): 89.0% | half-life at 10 μM [5]: > 1.5 h | % Remaining (No NADPH) 30 min ([5]; no NADPH, 30 min, 10 μM): 106% | CLint scaled at 10 μM ([5]; read-out: in vivo Clint): < 21 mL/min/kg | % Remaining (w/NADPH) 5 min ([5]; with NADPH, 5 min, 10 μM): 103.8% | % Remaining (w/NADPH) 30 min ([5]; with NADPH, 30 min, 10 μM): 82.1% | half-life at 10 μM ([6]; simulated intestinal fluid (SIF) with pancreatin, SIF pH 6.8, title: with pancreatin (1% w/v), read-out: T1/2 (min) (+) pepsin): > 360 min | half-life at 10 μM ([6]; simulated intestinal fluid (SIF) without pancreatin, SIF pH 6.8, title: without pancreatin, read-out: T1/2 (min) (−) pepsin): > 360 min | Concentration (μM) at 120 min, Prodrug ([7]; Negative Control (No MLH)): 240 µM | Concentration (μM) at 120 min, Prodrug ([7]; Prodrug + MLH + NADH): 4.70 µM

CCOC(=O)CN(C)c1noc(=O)[nH]1 [Example 26, ethyl 2-[methyl-(5-oxo-4H-1,2,4-oxadiazol-3-yl)amino]acetate]
melting point: 120 to 123 °C

CN(CC(=O)O)c1noc(=O)[nH]1 [Example 27, 2-[methyl-(5-oxo-4H-1,2,4-oxadiazol-3-yl)amino]acetic acid]
melting point: 150 to 155 °C

[2H]C([2H])([2H])N(CC(=O)OC)c1nc(=O)o[nH]1 [Example 28, Step 3, methyl 2-[(5-oxo-2H-1,2,4-oxadiazol-3-yl)-(trideuteriomethyl)amino]acetate]
melting point: 120 to 125 °C

[2H]C([2H])([2H])N(CC(=O)O)c1nc(=O)o[nH]1 [Example 28, Step 4, 2-[(5-oxo-2H-1,2,4-oxadiazol-3-yl)-(trideuteriomethyl)amino]acetic acid]
melting point: 150 to 155 °C

[2H]C([2H])([2H])N(CC(=O)OC(C)C)c1nc(=O)o[nH]1 [Example 28, Step 5C, isopropyl 2-[(5-oxo-2H-1,2,4-oxadiazol-3-yl)-(trideuteriomethyl)amino]acetate]
melting point: 143 to 145 °C

[2H]C([2H])([2H])N(CCO)c1nc(=O)o[nH]1 [Example 29, 3-[2-hydroxyethyl(trideuteriomethyl)amino]-2H-1,2,4-oxadiazol-5-one]
melting point: 98 to 104 °C

CN(CC(=O)O)C(=N)N.O [creatine monohydrate]
adverse side effects [8]: without adverse side effects

NC1=NCCN1CC(=O)O [cyclocreatine]
adverse effects [9]: do not exhibit adverse effects
